Among the data in US9242996B2 (Novartis AG, priority 2013, dated 2016) are IC50 values, retold here.

A word on the IC50: it is the concentration that inhibits the measured activity by half. Read a low IC50 as greater potency.

Holding throughout (type): biochemical
Experiment [1] deals with ERK2 (Homo sapiens (Human), UniProt P28482). Put plainly: ERK2 Alphascreen. In general terms: Bead proximity is the source of the signal in Alpha formats.
Experiment [2] has as its target T1, activated ERK2 (Homo sapiens (Human), UniProt P28482). Nature of the experiment: Activated ERK2 kinase assay, ERK2 New conditions (AlphaScreen, ERKtide phosphorylation). To be noted: 0.25 nM ERK2, 200 nM ERKtide peptide, 35 μM ATP, 30 min preincubation. Summed up: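 Read-out is AlphaScreen with anti-phospho-EGFR (Thr669) antibody after EDTA quench and overnight dark incubation. Reaction: 0.25 nM ERK2, 30 min compound preincubation, then 200 nM ERKtide plus 35 µM ATP for 2–3 h at ambient temperature, pH 7.5. IC50 by four-parameter fit.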

In experiment [3] the target is T1, activated ERK2. Nature of the experiment: Activated ERK2 (20 pM) Kinase Assay (AlphaScreen, ERKtide phosphorylation). To be noted: 0.02 nM ERK2, 400 nM ERKtide peptide, 35 μM ATP, 30 min preincubation. In short, it runs like this:
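AlphaScreen read-out (anti-phospho-EGFR Thr669 antibody, protein A acceptor/streptavidin donor beads) of ERKtide (400 nM) phosphorylation by 20 pM activated ERK2 at 35 μM ATP.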

T1 sequence (P28482 whole entry): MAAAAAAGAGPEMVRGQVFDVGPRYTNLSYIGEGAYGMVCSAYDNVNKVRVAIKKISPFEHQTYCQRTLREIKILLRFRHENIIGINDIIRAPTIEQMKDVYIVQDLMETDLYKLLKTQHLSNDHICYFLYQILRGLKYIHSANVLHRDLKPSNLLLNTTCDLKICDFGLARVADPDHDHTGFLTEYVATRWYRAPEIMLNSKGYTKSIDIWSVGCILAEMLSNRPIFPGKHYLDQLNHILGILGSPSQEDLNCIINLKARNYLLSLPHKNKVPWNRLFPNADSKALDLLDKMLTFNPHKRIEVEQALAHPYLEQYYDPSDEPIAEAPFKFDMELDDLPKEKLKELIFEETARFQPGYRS
Chain of ERK2 (P28482 whole entry, species assumed): as the sequence (P28482 whole entry) above

`Nc1ncc(C2CCOCC2)nc1-c1ccc(C(=O)N[C@H](CO)c2ccccc2)cc1` [Example 1, (S)-4-(3-amino-6-(tetrahydro-2H-pyran-4-yl)pyrazin-2-yl)-N-(2-hydroxy-1-phenylethyl)benzamide]: the 50% inhibitory concentration (IC50) came out at 0.00106 µM in experiment [1] and 0.00163 µM in experiment [2].
As to `CN(Cc1ccccc1)C(=O)c1ccc(-c2nc(C3CCOCC3)cnc2N)cc1F` [Example 52, 4-(3-amino-6-(tetrahydro-2H-pyran-4-yl)pyrazin-2-yl)-N-benzyl-2-fluoro-N-methylbenzamide], the values for the half-maximal inhibitory concentration (IC50) in experiment [1] and in experiment [2] were 0.0312 µM and 0.0303 µM, respectively.
Consider `Cc1cc(-c2cc(C3CCOCC3)cnc2N)ccc1C(=O)N[C@H](CO)c1ccccc1` [Example 65, (S)-4-(2-amino-5-(tetrahydro-2H-pyran-4-yl)pyridin-3-yl)-N-(2-hydroxy-1-phenylethyl)-2-methylbenzamide], for which the half-maximal inhibitory concentration (IC50) stood at 0.00184 µM in experiment [1] and 0.000684 µM in experiment [3].
As to `Nc1ncc(C2CCOCC2)cc1-c1ccc(C(=O)NCc2ccccc2)cc1` [Example 66, 4-(2-amino-5-(tetrahydro-2H-pyran-4-yl)pyridin-3-yl)-N-benzylbenzamide], the half-inhibitory concentration (IC50) was determined as 0.0553 µM in experiment [1] and 0.0418 µM in experiment [3].
The corresponding values for `CN(C)c1cccc(CNC(=O)c2ccc(-c3cc(C4CCOCC4)cnc3N)cc2)c1` [Example 67, 4-(2-amino-5-(tetrahydro-2H-pyran-4-yl)pyridin-3-yl)-N-(3-(dimethylamino)benzyl)benzamide] are 0.0855 µM and 0.0677 µM.
Regarding `Nc1ncc(C2CCOCC2)cc1-c1ccc(C(=O)N[C@H](CO)c2ccccc2)cc1Cl` [Example 68, (S)-4-(2-amino-5-(tetrahydro-2H-pyran-4-yl)pyridin-3-yl)-3-chloro-N-(2-hydroxy-1-phenylethyl)benzamide], the half-inhibitory concentration (IC50) in experiment [1] stood at 0.214 µM; in experiment [2], 0.314 µM.
`C[C@@H](NC(=O)c1ccc(-c2cc(C3CCOCC3)cnc2N)cc1)c1ccccc1` [Example 69, (R)-4-(2-amino-5-(tetrahydro-2H-pyran-4-yl)pyridin-3-yl)-N-(1-phenylethyl)benzamide]: the 50% inhibitory concentration (IC50) in experiment [1] came to 0.016 µM; in experiment [3] it was 0.01 µM.
The corresponding values for `Cc1cc(C(=O)N[C@H](CO)c2ccccc2)ccc1-c1cc(C2CCOCC2)cnc1N` [Example 70, (S)-4-(2-amino-5-(tetrahydro-2H-pyran-4-yl)pyridin-3-yl)-N-(2-hydroxy-1-phenylethyl)-3-methylbenzamide] are 0.574 µM and 0.331 µM.
With `Nc1ncc(C2CCOCC2)cc1-c1ccc(C(=O)N[C@H](CO)c2ccccc2)cc1F` [Example 71, (S)-4-(2-amino-5-(tetrahydro-2H-pyran-4-yl)pyridin-3-yl)-3-fluoro-N-(2-hydroxy-1-phenylethyl)benzamide], the IC50 stood at 0.0172 µM in experiment [1] and 0.00878 µM in experiment [3].
For the compound `Nc1ncc(C2CCOCC2)cc1-c1ccc(C(=O)NCc2cnccn2)c(F)c1` [Example 75, 4-(2-amino-5-(tetrahydro-2H-pyran-4-yl)pyridin-3-yl)-2-fluoro-N-(pyrazin-2-ylmethyl)benzamide], the values for the IC50 in experiment [1] and in experiment [2] were 1.16 µM and 1.22 µM, respectively.
Regarding `Nc1ncc(C2CCS(=O)(=O)CC2)cc1-c1ccc(C(=O)N[C@H](CO)c2ccccc2)cc1` [Example 77, (S)-4-(2-amino-5-(1,1-dioxidotetrahydro-2H-thiopyran-4-yl)pyridin-3-yl)-N-(2-hydroxy-1-phenylethyl)benzamide], the IC50 worked out at 0.0976 µM in experiment [1] and 0.0508 µM in experiment [3].
Consider `Nc1ncc(-c2ccncc2)cc1-c1ccc(C(=O)N[C@H](CO)c2ccccc2)cc1` [Example 80, (S)-4-(6-amino-[3,4′-bipyridin]-5-yl)-N-(2-hydroxy-1-phenylethyl)benzamide], for which the 50% inhibitory concentration (IC50) in experiment [1] was determined as 0.000584 µM; in experiment [3], 0.00051 µM.
On to `Cc1cnccc1-c1cnc(N)c(-c2ccc(C(=O)N[C@H](CO)c3ccccc3)cc2)c1` [Example 82, (S)-4-(6-amino-3′-methyl-3,4′-bipyridin-5-yl)-N-(2-hydroxy-1-phenylethyl)benzamide], for which the IC50 worked out at 0.00213 µM in experiment [1] and 0.0009 µM in experiment [3].
As to `Cc1cnccc1-c1cnc(N)c(-c2ccc(C(=O)N[C@H](CO)c3ccccc3)c(F)c2)c1` [Example 83, (S)-4-(6-amino-3′-methyl-3,4′-bipyridin-5-yl)-2-fluoro-N-(2-hydroxy-1-phenylethyl)benzamide], the values for the concentration for half-maximal inhibition (IC50) in experiment [1] and in experiment [2] were 0.000574 µM and 0.000752 µM, respectively.
Take `C[C@@H]1COCCN1c1cnc(N)c(-c2ccc(C(=O)N[C@H](CO)c3ccccc3)c(F)c2)c1` [Example 84, 4-(2-amino-5-((R)-3-methylmorpholino)pyridin-3-yl)-2-fluoro-N-((S)-2-hydroxy-1-phenylethyl)benzamide]: the half-maximal inhibitory concentration (IC50) turned out to be 0.00964 µM in experiment [1] and 0.00205 µM in experiment [3].
Take `Nc1ncc(C2CCOCC2)cc1-c1ccc(C(=O)NCc2cccc(Cl)c2)cc1` [Example 86, 4-(2-amino-5-(tetrahydro-2H-pyran-4-yl)pyridin-3-yl)-N-(3-chlorobenzyl)benzamide]: the half-inhibitory concentration (IC50) in experiment [1] was determined as 0.00478 µM; in experiment [3], 0.00375 µM.
Turning to `Nc1ncc(C2CCOCC2)cc1-c1ccc(C(=O)NCc2ccccc2Cl)cc1` [Example 87, 4-(2-amino-5-(tetrahydro-2H-pyran-4-yl)pyridin-3-yl)-N-(2-chlorobenzyl)benzamide], the values for the IC50 in experiment [1] and in experiment [3] were 0.266 µM and 0.209 µM, respectively.
In the case of `Nc1ncc(C2CCOCC2)cc1-c1ccc(C(=O)NCc2ccc(Cl)cc2)cc1` [Example 88, 4-(2-amino-5-(tetrahydro-2H-pyran-4-yl)pyridin-3-yl)-N-(4-chlorobenzyl)benzamide], the concentration for half-maximal inhibition (IC50) was determined as 0.0814 µM in experiment [1] and 0.0705 µM in experiment [3].
Turning to `Nc1ncc(C2CCOCC2)cc1-c1ccc(C(=O)NCc2cccc(C(F)(F)F)c2)cc1` [Example 89, 4-(2-amino-5-(tetrahydro-2H-pyran-4-yl)pyridin-3-yl)-N-(3-(trifluoromethyl)benzyl)benzamide], the 50% inhibitory concentration (IC50) in experiment [1] was 0.0098 µM; in experiment [3] it was 0.0202 µM.
For `Nc1ncc(C2CCOCC2)cc1-c1ncc(C(=O)N[C@H](CO)c2ccccc2)cn1` [Example 90, (S)-2-(2-amino-5-(tetrahydro-2H-pyran-4-yl)pyridin-3-yl)-N-(2-hydroxy-1-phenylethyl)pyrimidine-5-carboxamide], the values for the IC50 in experiment [1] and in experiment [3] were 0.049 µM and 0.033 µM, respectively.
As to `Nc1ncc(C2CCOCC2)cc1-c1ccc(C(=O)NCC2CC2)cc1` [Example 91, 4-(2-amino-5-(tetrahydro-2H-pyran-4-yl)pyridin-3-yl)-N-(cyclopropylmethyl)benzamide], the IC50 in experiment [1] was 0.559 µM; in experiment [3], 0.284 µM.
The corresponding values for `CC(=O)Nc1cccc(CNC(=O)c2ccc(-c3cc(C4CCOCC4)cnc3N)cc2)c1` [Example 92, N-(3-acetamidobenzyl)-4-(2-amino-5-(tetrahydro-2H-pyran-4-yl)pyridin-3-yl)benzamide] are 0.267 µM and 0.135 µM.
The corresponding values for `Nc1ncc(C2CCOCC2)cc1-c1ccc(C(=O)NCc2cccnc2)cc1` [Example 93, 4-(2-amino-5-(tetrahydro-2H-pyran-4-yl)pyridin-3-yl)-N-(pyridin-3-ylmethyl)benzamide] are 0.887 µM and 0.505 µM.
The corresponding values for `Nc1ncc(C2CCOCC2)cc1-c1ccc(C(=O)N[C@H](CO)c2ccccc2)c(F)c1` [Example 94, (S)-4-(2-amino-5-(tetrahydro-2H-pyran-4-yl)pyridin-3-yl)-2-fluoro-N-(2-hydroxy-1-phenylethyl)benzamide] are 0.000914 µM and 0.000879 µM.
On to `Cc1cc(-c2nc(C3CCOCC3)cnc2N)ccc1C(=O)N[C@H](CO)c1ccccc1` [Example 95, (S)-4-(3-amino-6-(tetrahydro-2H-pyran-4-yl)pyrazin-2-yl)-N-(2-hydroxy-1-phenylethyl)-2-methylbenzamide], for which the concentration for half-maximal inhibition (IC50) in experiment [1] worked out at 0.000533 µM; in experiment [3] it was 0.000136 µM.
With `COC(=O)N1CCC(c2cnc(N)c(-c3ccc(C(=O)N[C@H](CO)c4ccccc4)cc3)c2)CC1` [Example 98, (S)-methyl 4-(6-amino-5-(4-((2-hydroxy-1-phenylethyl)carbamoyl)phenyl)pyridin-3-yl)piperidine-1-carboxylate], the half-maximal inhibitory concentration (IC50) in experiment [1] turned out to be 0.0263 µM; in experiment [3], 0.0158 µM.
Consider `Nc1ncc(N2CCOCC2)cc1-c1ccc(C(=O)N[C@H](CO)c2ccccc2)cc1` [Example 122, (S)-4-(2-amino-5-morpholinopyridin-3-yl)-N-(2-hydroxy-1-phenylethyl)benzamide], for which the concentration for half-maximal inhibition (IC50) in experiment [1] was determined as 0.011 µM; in experiment [3] it was 0.00738 µM.
As for `Cc1cnccc1-c1cnc(N)c(-c2ccc(C(=O)N[C@H](CO)c3ccccc3)c(F)c2)n1` [Example 143, (S)-4-(3-amino-6-(3-methylpyridin-4-yl)pyrazin-2-yl)-2-fluoro-N-(2-hydroxy-1-phenylethyl)benzamide], the IC50 in experiment [1] worked out at 0.000265 µM; in experiment [3] it was 0.000364 µM.
As for `Nc1ncc(C2CCOCC2)cc1-c1ccc(C(=O)NCc2ccnnc2)c(F)c1` [Example 318, 4-(2-amino-5-(tetrahydro-2H-pyran-4-yl)pyridin-3-yl)-2-fluoro-N-(pyridazin-4-ylmethyl) benzamide], the values for the concentration for half-maximal inhibition (IC50) in experiment [1] and in experiment [3] were 0.311 µM and 0.381 µM, respectively.
Turning to “(S)-4-(3-amino-6- (tetrahydro-2H- pyran-4- yl)pyrazin-2-yl)-2- fluoro-N-(2- hydroxy-1- phenylethyl) benzamide [Example 325]”, the 50% inhibitory concentration (IC50) in experiment [1] was 0.000544 µM; in experiment [3], 0.000593 µM.
